This note sets out measurements from patent publication US20230174523A1, “BENZENESULFONAMIDE DERIVATIVES AS TRAP1 MODULATORS AND USES THEREOF” (Amathus Therapeutics, Inc., priority 2020, published 2023).

For the test, the target named is T1, TRAP1 enzyme (Homo sapiens, UniProt Q12931).
T1 sequence (Q12931 60-704): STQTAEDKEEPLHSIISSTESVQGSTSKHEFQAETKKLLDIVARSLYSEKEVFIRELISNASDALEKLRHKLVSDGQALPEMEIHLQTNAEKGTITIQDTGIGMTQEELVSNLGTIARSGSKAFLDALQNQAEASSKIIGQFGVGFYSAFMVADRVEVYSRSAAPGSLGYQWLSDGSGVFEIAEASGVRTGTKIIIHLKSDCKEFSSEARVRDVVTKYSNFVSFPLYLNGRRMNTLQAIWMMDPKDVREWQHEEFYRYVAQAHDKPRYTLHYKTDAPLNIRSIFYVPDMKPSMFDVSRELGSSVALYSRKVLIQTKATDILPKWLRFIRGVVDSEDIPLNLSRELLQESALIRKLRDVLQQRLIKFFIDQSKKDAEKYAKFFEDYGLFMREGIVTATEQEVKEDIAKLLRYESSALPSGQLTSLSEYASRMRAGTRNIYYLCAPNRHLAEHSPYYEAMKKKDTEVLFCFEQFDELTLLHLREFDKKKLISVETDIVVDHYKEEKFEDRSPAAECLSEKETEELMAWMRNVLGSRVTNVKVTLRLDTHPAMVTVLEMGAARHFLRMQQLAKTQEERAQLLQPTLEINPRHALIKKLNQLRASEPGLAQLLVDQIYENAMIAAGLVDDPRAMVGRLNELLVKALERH
Kind of test: ADP Glo assay of TRAP1 ATPase activity. Format: biochemical. Particulars: for EC50: TRAP1 ATPase activation, 150 nM Trap1, 20 μM ATP, geometric mean, read-out: ADP GLO DRC: GeoMean EC50; for Emax: read-out: ADP GLO DRC: Mean Emax. Put shortly:
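150 nM TRAP1 preincubated with compound (0.79–100 μM) 30 min at 37° C in Pipes pH 7.5 buffer (0.05 mM MgCl2, 40 mM KCl), then 20 μM ATP added for 60 min at 37° C. ADP quantified by ADP-Glo luminescence against ATP/ADP standard curve. Emax and EC50 from sigmoidal fit.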
A general note: ADP-Glo first removes unused ATP, then detects ADP through luciferase.

Turning to `COc1ccc(NC(=O)c2cc3cc(Br)cnc3s2)cc1S(=O)(=O)Nc1c(C)cccc1C` [Compound 1020], the EC50 (usually the midpoint of the concentration-response curve) is 10 to 20 µM and the maximal effect (Emax) (in general, the size of the effect at its maximum, as opposed to the concentration needed) was 200 to 300%.

As for `COc1ccc(NC(=O)c2cnc(-c3ccccc3)s2)cc1S(=O)(=O)Nc1c(C)cccc1C` [Compound 467], the EC50 was < 10 µM and the Emax was in the range of 160 to 199%.

For the compound `COc1ccc(NC(=O)c2cnc(-c3ccsc3)[nH]2)cc1S(=O)(=O)Nc1ccc(Cl)cc1` [Compound 1482], the EC50 is < 10 µM and the maximal effect (Emax) lay within 160 to 199%.

For the compound `COc1ccc(NC(=O)c2nc(C(C)C)cs2)cc1S(=O)(=O)Nc1c(C)cccc1C` [Compound 1169], the EC50 was < 10 µM and the maximal effect (Emax) lay within 160 to 199%.

As for `COc1ccc(NC(=O)c2ccc3c(c2)n(C)c(=O)n3C)cc1S(=O)(=O)Nc1c(C)cccc1C` [Compound 1146], the EC50 was < 10 µM and the Emax lay within 200 to 300%.

Regarding `COc1ccc(NC(=O)c2ccc3c(Br)nn(C)c3c2)cc1S(=O)(=O)Nc1c(C)cccc1C` [Compound 1024], the EC50 was < 10 µM and the Emax lay within 200 to 300%.

On to `COc1ccc(NC(=O)c2ocnc2C(C)C)cc1S(=O)(=O)Nc1ccc(Cl)cc1` [Compound 596], for which the EC50 lay in the range of 10 to 20 µM and the maximum response (Emax) was in the range of 160 to 199%.

Consider `COc1ccc(NC(=O)c2cc(Br)cnc2C)cc1S(=O)(=O)Nc1c(C)cccc1C` [Compound 1062], for which the EC50 lay in the range of 20 to 100 µM and the Emax lay within 160 to 199%.

In the case of `CCN1CCN(c2ccc(C(=O)Nc3ccc(OC)c(S(=O)(=O)Nc4c(C)cccc4C)c3)cc2)CC1` [Compound 1283], the EC50 is 20 to 100 µM and the Emax lay in the range of 123 to 159%.

Regarding `CCCN1CCN(c2ccc(C(=O)Nc3ccc(OC)c(S(=O)(=O)Nc4c(C)cccc4C)c3)cc2)CC1` [Compound 1174], the EC50 was < 10 µM and the Emax fell in the range of 160 to 199%.

On to `Cc1cc(C(=O)Nc2ccc(F)c(S(=O)(=O)Nc3ccc(Cl)cc3)c2)n(Cc2ccc(F)cc2)n1` [Compound 776], for which the EC50 was in the range of 10 to 20 µM and the Emax is 123 to 159%.

As for `COc1ccc(NC(=O)c2ncoc2C(C)C)cc1S(=O)(=O)Nc1ccc(Cl)cc1` [Compound 2476], the EC50 lay in the range of 10 to 20 µM and the Emax fell in the range of 123 to 159%.

In the case of `COc1ccc(NC(=O)c2ncn(-c3ccccc3)n2)cc1S(=O)(=O)Nc1c(C)cccc1C` [Compound 1270], the 50% effective concentration (EC50) lay within 10 to 20 µM and the maximal effect (Emax) is 200 to 300%.

`COc1ccc(NC(=O)c2ccc3c(=O)n(C)cnc3c2)cc1S(=O)(=O)Nc1c(C)cccc1C` [Compound 1124]: the EC50 lay within 10 to 20 µM and the Emax is 200 to 300%.

In the case of `COc1ccc(NC(=O)c2cnn(Cc3ccccc3)c2)cc1S(=O)(=O)Nc1c(C)cccc1C` [Compound 1068], the EC50 is < 10 µM and the Emax lay within 200 to 300%.

Consider `COc1ccc(NC(=O)c2cnn(-c3ccc(Cl)cc3)c2C)cc1S(=O)(=O)Nc1c(C)cccc1C` [Compound 1110], for which the concentration for a half-maximal effect (EC50) is < 10 µM and the Emax was in the range of 160 to 199%.

Consider `COc1ccc(NC(=O)c2csc(C)c2C)cc1S(=O)(=O)Nc1c(C)cccc1C` [Compound 1005], for which the EC50 is < 10 µM and the Emax fell in the range of 200 to 300%.

Consider `COc1ccc(NC(=O)c2ncn(C(C)C)n2)cc1S(=O)(=O)Nc1c(C)cccc1C` [Compound 1069], for which the half-maximal effective concentration (EC50) lay in the range of 20 to 100 µM and the maximal effect (Emax) is 160 to 199%.

On to `COc1ccc(NC(=O)c2csc3c2C2CCN3CC2)cc1S(=O)(=O)Nc1c(C)cccc1C` [Compound 1945], for which the EC50 is 10 to 20 µM and the Emax was in the range of 160 to 199%.

With `COc1ccc(NC(=O)c2c[nH]c3cnccc23)cc1S(=O)(=O)Nc1c(C)cccc1C` [Compound 1288], the EC50 was 20 to 100 µM and the Emax lay within 160 to 199%.

For `COc1ccc(NC(=O)c2ccc3ncn(C)c3c2)cc1S(=O)(=O)Nc1c(C)cccc1C` [Compound 1238], the EC50 was in the range of 20 to 100 µM and the maximum response (Emax) was 123 to 159%.

As for `COc1ccc(NC(=O)c2cccc(-c3ccnn3C)c2)cc1S(=O)(=O)Nc1c(C)cccc1C` [Compound 1242], the EC50 was < 10 µM and the Emax was > 300%.

For the compound `Cn1ncc(I)c1C(=O)Nc1ccc(F)c(S(=O)(=O)Nc2ccc(Cl)cc2)c1` [Compound 689], the EC50 fell in the range of 20 to 100 µM and the Emax was 160 to 199%.

With `COc1ccc(NC(=O)c2ccc3nccnc3c2)cc1S(=O)(=O)Nc1c(C)cccc1C` [Compound 1063], the concentration giving a half-maximal response (EC50) fell in the range of 20 to 100 µM and the Emax is > 300%.

On to `COc1ccc(NC(=O)c2cc(-n3ccnc3)ccn2)cc1S(=O)(=O)Nc1c(C)cccc1C` [Compound 1030], for which the EC50 lay in the range of 10 to 20 µM and the maximum response (Emax) fell in the range of 200 to 300%.

For the compound `COc1ccc(NC(=O)c2nnc(-c3ccccc3)[nH]2)cc1S(=O)(=O)Nc1ccc(Cl)cc1` [Compound 586, N-(3-(N-(4-chlorophenyl)sulfamoyl)-4-methoxyphenyl)-5-phenyl-4H-1,2,4-triazole-3-carboxamide], the EC50 was 10 to 20 µM and the Emax was in the range of 160 to 199%.

Take `COc1ccc(NC(=O)c2ncc(-c3ccccc3)o2)cc1S(=O)(=O)Nc1c(C(C)C)ccnc1C(C)C` [Compound 1809]: the concentration for a half-maximal effect (EC50) is < 10 µM and the maximum response (Emax) lay within 160 to 199%.

`CCS(=O)(=O)c1ccc(OC)c(C(=O)Nc2ccc(F)c(S(=O)(=O)Nc3ccc(Cl)cc3)c2)c1` [Compound 822]: the EC50 was in the range of 10 to 20 µM and the Emax lay within 160 to 199%.

With `COc1ccc(NC(=O)c2cccc(C#N)c2Cl)cc1S(=O)(=O)Nc1c(C)cccc1C` [Compound 1100], the EC50 lay within 10 to 20 µM and the Emax lay in the range of 200 to 300%.

Turning to `Cc1nc(C(=O)Nc2ccc(F)c(S(=O)(=O)Nc3ccc(Cl)cc3)c2)c(C)s1` [Compound 716], the EC50 lay within 20 to 100 µM and the maximal effect (Emax) was 123 to 159%.

Turning to `Cc1cc(C(=O)Nc2ccc(F)c(S(=O)(=O)Nc3ccc(Cl)cc3)c2)c2c(C)noc2n1` [Compound 736], the EC50 was in the range of 20 to 100 µM and the Emax lay in the range of 200 to 300%.

With `O=C(Nc1ccc(F)c(S(=O)(=O)Nc2ccc(Cl)cc2)c1)c1csc(N2CCOCC2)n1` [Compound 745], the EC50 lay within 20 to 100 µM and the Emax fell in the range of 123 to 159%.

Turning to `Cn1ncc(C(=O)Nc2ccc(F)c(S(=O)(=O)Nc3ccc(Cl)cc3)c2)c1-n1cccc1` [Compound 817], the EC50 was in the range of 20 to 100 µM and the Emax is 160 to 199%.

For `COc1ccc2oc(C(=O)Nc3ccc(OC)c(S(=O)(=O)Nc4c(C)cccc4C)c3)cc2c1` [Compound 1112], the EC50 was < 10 µM and the Emax lay within 160 to 199%.

On to `CCn1nc(C(C)C)cc1C(=O)Nc1ccc(OC)c(S(=O)(=O)Nc2c(C)cccc2C)c1` [Compound 1093], for which the EC50 is < 10 µM and the Emax lay in the range of 200 to 300%.

With `COc1ccc(NC(=O)c2ccc(-c3ccccc3C(F)(F)F)o2)cc1S(=O)(=O)Nc1c(C)cccc1C` [Compound 1162], the concentration for a half-maximal effect (EC50) was < 10 µM and the Emax is 123 to 159%.

`Cc1nc2cccc(C(=O)Nc3ccc(F)c(S(=O)(=O)Nc4ccc(Cl)cc4)c3)c2s1` [Compound 1268]: the half-maximal effective concentration (EC50) was 20 to 100 µM and the Emax lay within 123 to 159%.

As to `COc1ccc(NC(=O)c2ncn(-c3cccc(F)c3)n2)cc1S(=O)(=O)Nc1c(C)cccc1C` [Compound 1011], the EC50 fell in the range of 20 to 100 µM and the maximal effect (Emax) lay within 200 to 300%.

For `CCc1nccc(C)c1NS(=O)(=O)c1cc(NC(=O)c2ncc(-c3ccccc3)o2)ccc1OC` [Compound 1697], the EC50 fell in the range of 20 to 100 µM and the Emax was in the range of 123 to 159%.

Consider `COc1ccc(NC(=O)c2cn(C)c3ncccc23)cc1S(=O)(=O)Nc1c(C)cccc1C` [Compound 1108], for which the EC50 was in the range of 10 to 20 µM and the Emax is > 300%.

Take `COc1ccc(NC(=O)c2ncc(-c3ccccc3)o2)cc1S(=O)(=O)Nc1c(C)cc(C)nc1C` [Compound 1575]: the EC50 was in the range of 20 to 100 µM and the Emax lay in the range of 123 to 159%.

With `COc1ccc(NC(=O)c2cc(C)cs2)cc1S(=O)(=O)Nc1c(C)cccc1C` [Compound 1101], the EC50 lay within 10 to 20 µM and the Emax was in the range of 160 to 199%.

On to `CCn1nc(C(C)C)cc1C(=O)Nc1ccc(F)c(S(=O)(=O)Nc2ccc(Cl)cc2)c1` [Compound 1282], for which the EC50 fell in the range of 20 to 100 µM and the Emax was in the range of 123 to 159%.

On to `COc1ccc(NC(=O)c2cn(C)c3ncccc23)cc1S(=O)(=O)Nc1ccc(Cl)cc1` [Compound 1345], for which the EC50 is < 10 µM and the Emax fell in the range of 160 to 199%.

For the compound `CCc1cc(C(=O)Nc2ccc(F)c(S(=O)(=O)Nc3ccc(Cl)cc3)c2)cc(C)n1` [Compound 1286], the concentration for a half-maximal effect (EC50) was in the range of 20 to 100 µM and the Emax lay in the range of 123 to 159%.

Take `COc1ccc(NC(=O)c2ccc(Cl)nc2C)cc1S(=O)(=O)Nc1c(C)cccc1C` [Compound 1057]: the EC50 lay within 20 to 100 µM and the Emax was in the range of 160 to 199%.

For `COc1ccc(NC(=O)c2cn(Cc3ccccc3)nn2)cc1S(=O)(=O)Nc1c(C)cccc1C` [Compound 1265], the EC50 was < 10 µM and the Emax is 200 to 300%.
